Assay results reported in US20170362228A1, “TETRAHYDRO-PYRIDO[3,4-b]INDOLE ESTROGEN RECEPTOR MODULATORS AND USES THEREOF” (Genentech, Inc., priority 2016, published 2017).

Tested on: immature rat uterus
Experiment: Immature Uterine Wet Weight Assay, agonist mode (Example 906)
Type: in vivo
Conditions: dosed PO, QD×3
Experimental: Female immature CD-IGS rats (21 days old upon arrival) are treated for three days. Animals are dosed daily for three days. For Antagonist Mode, Vehicle or test compound is administered orally by gavage followed 15 minutes later by an oral dose of 0.1 mg/kg Ethynyl Estradiol. For Agonist Mode, Vehicle or test compound is administered orally by gavage. On the fourth day 24 hours after dose, plasma is collected for pharmacokinetic analysis. Immediately following plasma collection, the animals are euthanized and the uterus removed and weighed.
Uteri and ovaries from 2 animals per group are fixed in 10% neutral buffered formalin and paraffin embedded, sectioned and stained for H&E (SDPath). Stained tissues are analyzed and read by a board certified pathologist. […]
Mice were treated with Formula I compounds (1R,3R)-1-(2,6-difluoro-4-((1-(3-fluoropropyl)azetidin-3-yl)oxy)phenyl)-2-(2-fluoro-2-methylpropyl)-3-methyl-2,3,4,9-tetrahydro-1H-pyrido[3,4-b]indole 101 and (1R,3R)-1-(2,6-difluoro-4-(2-(3-(fluoromethyl)azetidin-1-yl)ethoxy)phenyl)-2-(2-fluoro-2-methylpropyl)-3-methyl-2,3,4,9-tetrahydro-1H-pyrido[3,4-b]indole 102, tamoxifen, fulvestrant, AZD9496 (WO 2014/191726, Example 1, page 74; U.S. Pat. No. 9,155,727), and two controls: Vehicle and Vehicle plus ethynyl estradiol (EE). […] Uterine Wet Weight (UWW): Body Weight ratios were calculated. […]

**Q.** With C[C@@H]1Cc2c([nH]c3ccccc23)[C@@H](c2c(F)cc(/C=C/C(=O)O)cc2F)N1CC(C)(C)F [AZD9496] as the compound, how does the “activity in agonist mode UWW assay” value read?
**A.** partial agonist
